Source: ChEMBL document CHEMBL1142370, “Synthesis and SAR of pyridazinone-substituted phenylalanine amide alpha4 integrin antagonists” (Bioorg Med Chem Lett, 2008)

How the values were obtained:
in vivo [1] = conditions: rat, po, 30 mg/kg
in vivo [2] = conditions: rat, po, 30 mg/kg; remark: listed apart in the source
in vitro = conditions: human, Caco-2

Structure (SMILES) | bioavailability (in vivo [1]) | Cmax (in vivo [2]) | Papp A→B (in vitro)
COc1cnn(C)c(=O)c1-c1ccc(C[C@H](NC(=O)c2cc(F)ccc2Cl)C(=O)OCCO)cc1 | 5% | 19 µM | 
COc1cnn(C)c(=O)c1-c1ccc(C[C@H](NC(=O)c2c(Cl)cccc2Cl)C(=O)O)cc1 |  | 0.1 µM | 1.3 nm/s
COc1cnn(C)c(=O)c1-c1ccc(C[C@H](NC(=O)c2cc(F)ccc2Cl)C(=O)O)cc1 | 0% |  | 
